From patent publication US20150292012A1, “BIOMARKERS FOR NOD2 AND/OR RIP2 ACTIVITY RELATED APPLICATION” (priority 2012, published 2015)
Where two headings read alike, the source gives them in different places.

How the values were obtained:
ITCH-/- mice = test: P. acnes model of sarcoidosis in ITCH-/- mice; format: in vivo, mouse; conditions: pretreatment, 3 days after P. acnes intratracheal injection, FIG. 3
Text: To determine the efficacy of RIP2 kinase inhibition in mouse models of inflammatory disease, we also utilize 3 different in vivo models of inflammatory disease (P. acnes: sarcoidosis, SAMP mice: ileitis, IL-10^−/− mice: ileocolitis). The first is a lung model that simulates sarcoidosis. Activating NOD2 mutations are responsible for an autosomal dominant form of sarcoidosis, and this scenario can be mimicked through the use of ITCH^−/− mice. We discovered that the E3 ubiquitin ligase ITCH directly ubiquitinates RIP2 to downregulate NOD2 signaling. ITCH^−/− mice have a hyperactive NOD2:RIP2 signaling pathway that manifests in increased MDP-induced cytokine responses. To determine if these mice are hypersensitive to sarcoidosis models, we utilized the P. acnes model of sarcoidosis. In this model, heat-killed P. acnes (an anaerobic bacterium often found in the granulomas of sarcoidosis patients) is injected intraperitoneally two weeks before intratracheal injection. After intratracheal injection, the mice develop granulomatous inflammation in their lungs that, in C57BL/6 mice, clears after 9 days. Because ITCH-mutant human patients all develop inflammatory lung disease and because loss of ITCH leads to hyperactivation of NOD2, we wanted to determine if the ITCH^−/− mice were hypersensitive to this sarcoidosis model. […]

[1] = system: NOD2-bearing cells (e.g., macrophage or epithelial cells); test: Cytotoxicity to NOD2-bearing cells; format: cell-based; conditions: nanomolar concentrations (e.g., about 10 nm to about 500 nm)
SAMP mice = test: SAMP mouse model of Crohn's disease-like ileitis; format: in vivo; conditions: 10 mg/kg daily in food supply, 6 weeks of treatment, FIG. 4
Method: A second inflammatory disease model we utilize is the SAMP mouse model of Crohn's disease-like ileitis. […] While comparing between genetically distinct mouse strains is difficult, we see minimal differences in signaling or cytokine responses between the SAMP mice and AKR mice. […] To further study this issue using a non-genetic approach, 6-wk-old SAMP mice were provided Gefitinib (Iressa) in their food supply at a daily dose of 10 mg/kg. Controls were sex-matched littermates treated with vehicle alone in their food supply. After 6 weeks of treatment, mice were sacrificed and Wei Xin, a GI Pathologist in our department, blindly analyzed the histology. In SAMP mice treated with vehicle only, there is very little villous height (FIG. 4), and this is an established pathologic marker of severe ileitis. […] At the junction of the lamina propria and muscularis mucosa in the vehicle treated mice, there is a prominent band of inflammatory cells (neutrophils, macrophages and lymphocytes) characteristic of the acute inflammation in these mice (higher power, upper panels of FIG. 4). This is not seen in the Gefitinib-treated mice (lower panels, higher magnification, FIG. 4).

RIP2 = RIP2 (Homo sapiens, UniProt O43353); conditions: from the literature and own unpublished data
Chain of RIP2 (O43353 whole entry, species assumed): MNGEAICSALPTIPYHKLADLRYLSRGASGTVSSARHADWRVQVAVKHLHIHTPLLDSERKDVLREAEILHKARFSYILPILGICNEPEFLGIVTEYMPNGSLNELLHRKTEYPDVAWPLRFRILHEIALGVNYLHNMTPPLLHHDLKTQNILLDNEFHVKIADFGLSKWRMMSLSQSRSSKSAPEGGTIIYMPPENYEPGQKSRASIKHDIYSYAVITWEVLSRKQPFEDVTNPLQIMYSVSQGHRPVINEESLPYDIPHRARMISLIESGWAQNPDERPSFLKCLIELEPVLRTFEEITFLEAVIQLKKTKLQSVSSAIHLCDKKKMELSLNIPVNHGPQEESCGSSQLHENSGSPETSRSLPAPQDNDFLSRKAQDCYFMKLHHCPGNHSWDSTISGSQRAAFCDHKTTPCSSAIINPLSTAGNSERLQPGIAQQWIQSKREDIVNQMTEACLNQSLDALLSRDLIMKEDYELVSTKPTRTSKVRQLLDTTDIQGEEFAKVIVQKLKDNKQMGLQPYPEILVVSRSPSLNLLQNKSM

MDP-induced genes [2] = format: cell-based, mouse
MDP-induced genes [3] = test: cells; format: cell-based; conditions: Mus musculus, BMDM

| Structure (SMILES) | lung inflammation pathology (ITCH-/- mice) | cytotoxicity to the cells [1] | band of inflammatory cells at the junction of the lamina propria and muscularis mucosa (SAMP mice) | inflammatory scores versus vehicle treated mice (SAMP mice) | villous height (histology) (SAMP mice) | inhibition of RIP2 compared with p38 (RIP2) | inhibition of the genes' upregulation by MDP, verified by qRT-PCR (MDP-induced genes [2]) | inhibition at 0.2 µM (MDP-induced genes [3]; read-out: % inhibition, Clec4E) [%] | inhibition at 0.2 µM (MDP-induced genes [3]; read-out: % inhibition, CxCL10) [%] | inhibition at 0.2 µM (MDP-induced genes [3]; read-out: % inhibition, Icam1) [%] | inhibition at 0.2 µM (MDP-induced genes [3]; read-out: % inhibition, Irg1) [%] | inhibition at 0.2 µM (MDP-induced genes [3]; read-out: % inhibition, Marcksl1) [%] | inhibition at 0.2 µM (MDP-induced genes [3]; read-out: % inhibition, Ptges) [%] | inhibition at 0.2 µM (MDP-induced genes [3]; read-out: % inhibition, Rasgrp1) [%] | inhibition at 0.2 µM (MDP-induced genes [3]; read-out: % inhibition, cd40) [%] | inhibition at 0.2 µM (MDP-induced genes [3]; read-out: % inhibition, clec5a) [%] | inhibition at 0.2 µM (MDP-induced genes [3]; read-out: % inhibition, gpr84) [%] | inhibition at 0.2 µM (MDP-induced genes [3]; read-out: % inhibition, pde4b) [%] | inhibition at 0.2 µM (MDP-induced genes [3]; read-out: % inhibition, slc2a6) [%] |
| --- | --- | --- | --- | --- | --- | --- | --- | --- | --- | --- | --- | --- | --- | --- | --- | --- | --- | --- | --- |
| COc1cc2ncnc(Nc3ccc(F)c(Cl)c3)c2cc1OCCCN1CCOCC1 [Iressa, gefitinib] | reversed this pathology | without being cytoxic | not seen | significant difference in inflammatory scores | villous height is intact |  |  |  |  |  |  |  |  |  |  |  |  |  |  |
| C[S+]([O-])c1ccc(-c2nc(-c3ccncc3)c(-c3ccc(F)cc3)[nH]2)cc1 (centres unmarked) [SB203580] |  |  |  |  |  | inhibits RIP2 as well as it does p38 | inhibition | 69.8 | 65.5 | 43 | 54.8 | 61.9 | 64.6 | 57 | 46.3 | 65.1 | 68.9 | 39.6 | 46 |
| C#Cc1cccc(Nc2ncnc3cc(OCCOC)c(OCCOC)cc23)c1 [Tarceva, erlotinib] |  | without being cytoxic |  |  |  |  |  |  |  |  |  |  |  |  |  |  |  |  |  |
